Test results taken from patent US10765687B2, “Methods and compounds to inhibit enveloped virus release” (Northwestern University, priority 2012, dated 2020).
Entries after “also recorded” stand apart in the source; their conditions may differ. No end group written: not given here.

What was measured:
[1] = target: T1, WWP2 polypeptide (SEQ ID NO:24) (Homo sapiens, UniProt O00308); assay: Fluorescence polarization WWP2 protein dose-response, binding of PY-motif peptide probes
T1 construct: poly-His (pET28b leader with thrombin site) (N, cleaved yes); made in house; host or cells: E. coli BL21 DE3
Protocol: […] Non-binding solid black plates (Corning Costar 3575) were used. The assay buffer contained 20 mM Tris and 150 mM NaCl at pH 7.9. FP was measured on either a Biotek Synergy4 or an Analyst GT plate reader. Data analysis was performed using the in-house software excelHTS. […] Each assay plate included 16 negative control wells containing protein-probe mix but no compounds and 16 wells containing only probe.

TSG101 (SEQ ID NO:33) = target: T2, TSG101 (SEQ ID NO:33) (Homo sapiens, UniProt Q99816); assay: Fluorescence-based thermal shift (FTS) assay; assay type: binding; settings: FIG. 7
T2 construct: polyhistidine leader with thrombin cleavage site (pET28b) (N); TEV cleavage site (N); made in house
T2 sequence (Q99816 with tags, fused parts or gaps): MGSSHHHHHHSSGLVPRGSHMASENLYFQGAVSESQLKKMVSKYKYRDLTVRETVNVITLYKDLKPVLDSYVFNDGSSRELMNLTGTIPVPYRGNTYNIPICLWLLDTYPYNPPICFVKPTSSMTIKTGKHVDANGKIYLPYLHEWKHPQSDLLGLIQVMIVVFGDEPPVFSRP
Protocol: The fluorescence-based thermal shift assay is based on the observation that a protein unfolds upon heating, exposing the hydrophobic residues within its tertiary structure. The unfolding temperature (Tm) is determined by the protein's primary sequence and solution environment. The FTS assay uses a fluorescent dye sensitive to a hydrophobic environment to probe protein stability and its modulation by small molecule ligands. The dye has a low fluorescence quantum yield when in a polar environment. […] J Biomol Screen 6: 429-440; Lo M C, Aulabaugh A, Jin G, Cowling R, Bard J, et al. (2004) Evaluation of fluorescence-based thermal shift assays for hit identification in drug discovery. […]
The NU-HTA has developed a robotic pipeline for small molecule protein ligand screening by FTS. See Luan C H, Light S H, Dunne S F, Anderson W F. Ligand screening using Fluorescence Thermal Shift Analysis (FTS). […] The pipeline uses an Echo550 acoustic transfer robot (Labcyte, CA) for compound addition and the Mosquito robot (TTP LabTechnologies, UK) for protein dispensing followed by thermal scanning coupled with fluorescence detection which is performed on a real-time PCR machine CFX384 (Bio-Rad Laboratories). […]

HSV-1 (strain F) = assay: HSV-1 virus production and release from infected Vero cells, plaque assay; assay type: cell-based; settings: FIG. 8A
Protocol: Vero cells were inoculated with HSV-1 (strain F) at a multiplicity of infection (MOI) of 0.01 for 2 hr. The cells were washed and treated with 0.10 M sodium citrate buffer to inactivate viruses on the outside of the cells (for example, in the culture medium). The culture medium was replaced with fresh culture medium containing no inhibitor compound or different concentrations (40 μM or 80 μM) of inhibitor compounds F15 or N16 (candidate PTAP motif inhibitors against the TSG101 peptide [SEQ ID NO:33]) for 48 hr. The supernatants (culture medium) and total cells (culture medium and cells) were collected for determining infectious virus titer. The virus titers were determined by standard plaque assay on Vero cells.
Vero cells were grown in DMEM supplemented with 10% FBS. Viral infections were performed in DMEM supplemented with 1% heat-inactivated FBS. Vero cells were inoculated HSV-1 (strain F) at indicated concentrations, after 2 h, the cells were washed and treated with 0.1 M sodium citrate buffer (pH 3.0) for 1 min to inactivate unpenetrated viruses, washed again and incubated with fresh medium containing 1% heat-inactivated FBS. […] Then virus titers were determined by standard plaque assay on Vero cells.

Vero cells = assay: MTS cytotoxicity assay; settings: 0 μM to 100 μM, uninfected cells, absorbance at 490 nm, FIG. 8B; listed as N16
Protocol: The cytotoxicity of the compounds was determined by a commercially available assay (Celltiter 96® AQueous One Solution cell proliferation assay reagent; Promega, Madison, Wis.), as described previously (Akkarawongsa et al., 2006). The CellTiter 96® AQueous One Solution Cell Proliferation Assay is a colorimetric method for determining the number of viable cells in proliferation, cytotoxicity or chemosensitivity assays. The CellTiter 96® AQueous One Solution Reagent contains a tetrazolium compound [3-(4,5-dimethylthiazol-2-yl)-5-(3-carboxymethoxyphenyl)-2-(4-sulfophenyl)-2H-tetrazolium, inner salt; MTS] and an electron coupling reagent (phenazine ethosulfate; PES). PES has enhanced chemical stability, which allows it to be combined with MTS to form a stable solution. […] Assays are performed by adding a small amount of the CellTiter 96® AQueous One Solution Reagent directly to culture wells, incubating for 1-4 hours and then recording absorbance at 490 nm with a 96-well plate reader. The quantity of formazan product as measured by the amount of 490 nm absorbance is directly proportional to the number of living cells in culture.
Briefly, Vero cells (1.5×10^4 cells/well) were seeded in a 96-well plate, and the plate was incubated for 24 h at 37° C. […] The plate was then incubated for 2 h at 37° C., and the absorbance at 490 nm was determined with a 96-well plate reader (Perkin Elmer).

WWP2 (SEQ ID NO:24) [2] = target: T3, WWP2 (SEQ ID NO:24) (Homo sapiens, UniProt O00308); assay: Fluorescence polarization assay (FITC/TAMRA) for disruption of WWP2 binding to PY-motif peptide probe; settings: SEQ ID NO: 17 probe with FITC or TAMRA label; read-out: [compound] to achieve 50% change in fluorescence polarization in FP Assay
T3 construct: poly-His (pET28b leader with thrombin site) (N, cleaved yes); made in house; host or cells: E. coli BL21 DE3
Protocol: Screens for compounds that disrupt the binding of the FTIC-peptide and WWP2 (SEQ ID NO:24) were carried out in 384-well plate format with […] assay volume at ˜[…] WWP2. Non-binding solid black plates (Corning Costar 3575) were used. The assay buffer contained 20 mM Tris and 150 mM NaCl at pH 7.9. FP was measured on either a Biotek Synergy4 or an Analyst GT plate reader. Data analysis was performed using the in-house software excelHTS. […] Each assay plate included 16 negative control wells containing protein-probe mix but no compounds and 16 wells containing only probe.

WWP2 (SEQ ID NO:24) [3] = target: T3, WWP2 (SEQ ID NO:24); assay: Epic label-free binding assay of compounds to immobilized WWP2
Protocol: Another preferred embodiment of an in vitro screening method is depicted in FIG. 3. In this method, the ability of the candidate compound 204 to directly interact with the cellular ESCRT-linked component protein (for example, Nedd4 family of polypeptides [for example, WWP1 (SEQ ID NO:29), WWP2 (SEQ ID NO:24), Nedd4 L, among others]) or TGS101 is evaluated. According to this embodiment, a cellular ESCRT component protein 202 is preferably immobilized to a substrate 201 (for example, a microtiter plate) via a linking group 203 (for example, an amine group). The substrate preferably includes an optional reference area that provides a control to prevent non-specific interactions with non-mobilized ESCRT complex protein 202 with substrate 201. The substrate 201 is washed and irradiated with broadband light so that a baseline refractive index is measured. Test compound 204 is added to the system to permit its binding to the immobilized ESCRT component protein 202 to form a resultant associative complex 205. The substrate 201 is irradiated with broadband light again to detect a change in the wavelength of the reflected light.
High sensitivity biochemical plates (PerkinElmer Cat. No. 6057468) are used in WWP2 (SEQ ID NO:24) binding assay to maximize protein immobilization. […] Because compound stocks are in DMSO that affects the Epic label-free readout, the compound plates were prepared by Echo550 acoustic dispenser to keep DMSO content balanced for all wells. […]
The binding of compounds to WWP2 (SEQ ID NO:24) was measured on the EnSpire label-free plate reader. After 25 minutes of thermal equilibration, a baseline reading was taken on the label-free plates with protein immobilized in assay buffer. […] The final reading was taken after 25 min of thermal equilibration and over a period of 60 minutes. The label-free responses were measured as shifts in reflected wavelength and were expressed in picometers (pm). Results were analyzed using the EnSpire label-free user interface software. […]

T3 sequence (O00308 with tags, fused parts or gaps): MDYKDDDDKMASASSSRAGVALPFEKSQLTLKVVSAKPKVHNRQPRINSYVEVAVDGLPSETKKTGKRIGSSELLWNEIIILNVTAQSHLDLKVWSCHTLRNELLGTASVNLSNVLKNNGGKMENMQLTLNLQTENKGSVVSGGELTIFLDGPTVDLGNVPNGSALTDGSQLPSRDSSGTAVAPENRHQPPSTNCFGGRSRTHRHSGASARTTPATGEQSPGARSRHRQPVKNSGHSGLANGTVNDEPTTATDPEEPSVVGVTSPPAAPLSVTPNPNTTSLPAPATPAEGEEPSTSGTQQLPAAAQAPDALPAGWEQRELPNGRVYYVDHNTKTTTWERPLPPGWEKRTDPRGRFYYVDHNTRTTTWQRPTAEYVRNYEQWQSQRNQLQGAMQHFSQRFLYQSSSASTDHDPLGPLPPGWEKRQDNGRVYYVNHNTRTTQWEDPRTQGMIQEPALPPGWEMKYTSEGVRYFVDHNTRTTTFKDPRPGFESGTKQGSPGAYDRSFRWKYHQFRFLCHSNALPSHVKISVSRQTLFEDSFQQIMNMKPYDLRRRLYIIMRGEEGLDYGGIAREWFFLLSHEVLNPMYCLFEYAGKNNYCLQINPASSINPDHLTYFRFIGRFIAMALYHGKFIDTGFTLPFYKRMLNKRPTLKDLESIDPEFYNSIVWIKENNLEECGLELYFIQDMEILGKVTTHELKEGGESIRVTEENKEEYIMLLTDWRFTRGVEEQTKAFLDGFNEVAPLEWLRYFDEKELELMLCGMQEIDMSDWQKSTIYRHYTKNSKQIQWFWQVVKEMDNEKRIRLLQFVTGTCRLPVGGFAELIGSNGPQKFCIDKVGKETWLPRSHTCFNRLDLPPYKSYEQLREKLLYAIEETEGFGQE
T1 sequence (O00308 with tags, fused parts or gaps): as above

Q: Which Kd [1] does the source give for “ATASAPPPYVGSGGGATASAPPPYVGSGGGATASAPPPYVGSGGGRRR [SEQ ID NO:17]” here?
A: Its Kd is 0.2 µM.

Q: What does the source list for `COc1ccc2[nH]c([S+]([O-])Cc3ncc(C)c(OC)c3C)nc2n1` (racemic) [Tenatoprazole, (RS)-3-Methoxy-8-[(4-methoxy-3,5-dimethyl-pyridin-2-yl)methylsulfinyl]-2,7,9-triazabicyclo[4.3.0]nona-2,4,8,10-tetraene]?
A: Thermal shift in protein unfolding (Tm) of TSG101 (TSG101 (SEQ ID NO:33)): lower Tm; HSV-1 virion release from cells (in words) (HSV-1 (strain F)): inhibit HSV-1 virion release from cells; Cytotoxic effects on Vero cells (Vero cells): Neither inhibitor compound was cytotoxic; also recorded: not toxic; also recorded: did not display cytotoxic effects

Q: `CCC(/C=C1\Sc2cc(Br)ccc2N1CC)=C\c1sc2cc(Br)ccc2[n+]1CC` [CD23-G07] was tested. Which IC50 (WWP2 (SEQ ID NO:24) [2]) did it give?
A: The IC50 was 20 to 30 µM.

Q: `O=C1c2ccccc2C(=O)c2c(NC3CCCCC3)ccc(Nc3ccc(S(=O)(=O)O)cc3)c21` [NSC128437] was tested. Which IC50 (WWP2 (SEQ ID NO:24) [2]) did it give?
A: Its IC50 is 3 µM.

Q: `CC1=C(O)C(=O)C=C2C1=CC=C1[C@@]2(C)CC[C@@]2(C)[C@@H]3C[C@](C)(C(=O)O)CC[C@]3(C)CC[C@]12C` [Celastrol, 3-Hydroxy-9β,13α-dimethyl-2-oxo-24,25,26-trinoroleana-1(10),3,5,7-tetraen-29-oic acid] was tested. Which Kd (WWP2 (SEQ ID NO:24) [3]) did it give?
A: Its Kd is 18.5 µM.

Q: For `Cc1nn(-c2ccc(S(=O)(=O)[O-])cc2)c([O-])c1N=Nc1ccc(-c2ccc(N=Nc3ccc4c(S(=O)(=O)[O-])cc(S(=O)(=O)[O-])c(N)c4c3[O-])c([O-])c2)cc1[O-].[Cu+2].[Cu+2].[H+].[H+].[H+]` [NSC306711], which IC50 (WWP2 (SEQ ID NO:24) [2]) is on record?
A: Its IC50 is 1 µM.

Q: `COc1ccc2[n-]c([S@@+]([O-])Cc3ncc(C)c(OC)c3C)nc2c1.[K+]` [Esomeprazole potassium, 5-methoxy-2-[(R)-[(4-methoxy-3,5-dimethylpyridin-2-yl)methane]sulfinyl]-1H-1,3-benzodiazole, potassium] was tested. Which “HSV-1 virion release from cells (in words)” value (HSV-1 (strain F)) did it give?
A: Its value is “inhibit HSV-1 virion release from cells”.
